Patent publication US20240287079A1, “6-AMINOPYRAZOLOPYRIMIDINE COMPOUND AND PHARMACEUTICAL USE THEREOF” (Japan Tobacco Inc., priority 2021, published 2024)

Molecular target: NLRP3 inflammasome (Homo sapiens (Human), UniProt Q96P20)
Experiment: Evaluation of NLRP3 inflammasome inhibitory activity (inhibition of IL-1β production in LPS/Nigericin-stimulated THP1-Null cells)
Format: cell-based
Conditions: IL-1β production in THP1-Null cells, PMA, LPS 1 μg/mL, Nigericin 7.5 μmol/L, AlphaLISA
Summary of the method: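 THP1-Null cells primed with 1 μg/mL LPS, then treated with test compound; supernatant IL-1β quantified by AlphaLISA. Inhibition calculated with blank wells as 100% and control wells as 0%.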

NLRP3 inflammasome, sequence (Q96P20 whole entry): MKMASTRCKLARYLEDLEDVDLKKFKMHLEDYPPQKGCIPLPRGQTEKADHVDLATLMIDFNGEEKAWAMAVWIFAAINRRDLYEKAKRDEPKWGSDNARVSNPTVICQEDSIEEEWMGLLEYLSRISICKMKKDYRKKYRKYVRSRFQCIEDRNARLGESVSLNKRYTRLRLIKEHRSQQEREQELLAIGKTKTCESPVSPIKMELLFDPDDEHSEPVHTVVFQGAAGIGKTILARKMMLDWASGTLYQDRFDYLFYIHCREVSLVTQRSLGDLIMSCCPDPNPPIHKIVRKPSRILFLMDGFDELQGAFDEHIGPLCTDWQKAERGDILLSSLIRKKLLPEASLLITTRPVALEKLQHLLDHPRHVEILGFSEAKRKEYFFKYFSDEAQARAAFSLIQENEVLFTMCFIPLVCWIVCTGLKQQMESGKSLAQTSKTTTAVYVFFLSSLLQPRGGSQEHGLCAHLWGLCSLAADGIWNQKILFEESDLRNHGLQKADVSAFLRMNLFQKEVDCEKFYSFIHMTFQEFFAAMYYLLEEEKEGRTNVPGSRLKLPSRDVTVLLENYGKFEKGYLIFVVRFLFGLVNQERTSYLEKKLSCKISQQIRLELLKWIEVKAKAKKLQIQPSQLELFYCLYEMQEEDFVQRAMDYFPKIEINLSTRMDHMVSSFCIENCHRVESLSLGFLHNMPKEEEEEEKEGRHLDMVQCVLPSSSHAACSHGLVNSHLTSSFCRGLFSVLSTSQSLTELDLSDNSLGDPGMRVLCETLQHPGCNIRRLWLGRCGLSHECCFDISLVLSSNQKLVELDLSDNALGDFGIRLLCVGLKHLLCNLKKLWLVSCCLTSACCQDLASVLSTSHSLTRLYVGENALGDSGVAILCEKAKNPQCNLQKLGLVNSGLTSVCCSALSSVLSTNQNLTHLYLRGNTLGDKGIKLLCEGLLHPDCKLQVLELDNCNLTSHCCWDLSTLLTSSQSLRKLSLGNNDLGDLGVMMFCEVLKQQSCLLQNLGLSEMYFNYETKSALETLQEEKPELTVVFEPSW

SMILES: Cc1cc(C2CC2)cc(F)c1-n1cc2c(=O)[nH]c(N3C[C@H]4C[C@@H]3CO4)nc2n1 [Example 299]
- IC50: 17 nM

SMILES: O=c1[nH]c(NC2CCOCC2)nc2nn(-c3ccc(C(F)(F)F)cc3Cl)cc12 [Example 184]
- IC50: 67 nM

SMILES: Cc1cc(Br)ccc1-n1cc2c(=O)[nH]c(N3CC4(COC4)C3)nc2n1 [Example 191]
- IC50: 35 nM

SMILES: C[C@@H]1COCCN1c1nc2nn(-c3ccc(Br)cc3C(F)(F)F)cc2c(=O)[nH]1 [Example 258]
- IC50: 23 nM

SMILES: COC(c1cc(Br)ccc1-n1cc2c(=O)[nH]c(N3C[C@H]4C[C@@H]3CO4)nc2n1)C1CC1 (some centres unmarked) [Example 314]
- IC50: 1100 nM

SMILES: CNc1nc2nn(-c3ccccc3C)cc2c(=O)[nH]1 [Example 36]
- IC50: 1700 nM

SMILES: Cc1cccc(C)c1-n1cc2c(=O)[nH]c(N3CC(C(F)(F)F)C3)nc2n1 [Example 53]
- IC50: 750 nM

SMILES: O=c1[nH]c(N2CCCC2)nc2nn(-c3ncc(C(F)(F)F)cc3Cl)cc12 [Example 157]
- IC50: 33 nM

SMILES: Cc1cc(Br)ccc1-n1cc2c(OCCO)nc(N3CCOCC3)nc2n1 [Example 153]
- IC50: 460 nM

SMILES: CCOc1cc(Br)ccc1-n1cc2c(=O)[nH]c(N3CCOCC3)nc2n1 [Example 302]
- IC50: 130 nM

SMILES: C[C@@H]1COCCN1c1nc2nn(-c3ccc(C4CC4)cc3C(F)(F)F)cc2c(=O)[nH]1 [Example 261]
- IC50: 5.5 nM

SMILES: Cc1cc(C)c(-n2cc3c(=O)[nH]c(N4CCC(N(C)C)C4)nc3n2)c(C)c1 (racemic) [Example 113]
- IC50: 63 nM

SMILES: Cc1cc(Br)ccc1-n1cc2c(=O)[nH]c(N3CCC(C#N)C3)nc2n1 (racemic) [Example 90]
- IC50: 4.9 nM

SMILES: Cc1ccccc1-n1cc2c(=O)[nH]c(N3CCC(C#N)C3)nc2n1 (racemic) [Example 26]
- IC50: 1300 nM

SMILES: O=c1[nH]c(N2CCOCC2)nc2nn(-c3ccc(Cl)cc3CC3CC3)cc12 [Example 320]
- IC50: 45 nM

SMILES: O=c1[nH]c(N2CCOCC2)nc2nn(-c3c(O)cc(C(F)(F)F)cc3Cl)cc12 [Example 257]
- IC50: 69 nM

SMILES: Cc1cc(Cl)ccc1-n1cc2c(=O)[nH]c(N3CCCOCC3)nc2n1 [Example 165]
- IC50: 29 nM

SMILES: Cc1cc(OC(F)F)cc(C)c1-n1cc2c(=O)[nH]c(N3CCOCC3)nc2n1 [Example 298, 2-(4-(difluoromethoxy)-2,6-dimethylphenyl)-6-morpholino-2,5-dihydro-4H-pyrazolo[3,4-d]pyrimidin-4-one]
- IC50: 27 nM

SMILES: Cc1cc(Br)cc(C)c1-n1cc2c(=O)[nH]c(NC3CCCN(C)C3)nc2n1 (racemic) [Example 245]
- IC50: 8 nM

SMILES: Cc1cc(Br)cc(C)c1-n1cc2c(=O)[nH]c(N3CCCCCO3)nc2n1 [Example 338]
- IC50: 25 nM

SMILES: Cc1cc(C2CC2)cc(C)c1-n1cc2c(=O)[nH]c(N3CCOCC3)nc2n1 [Example 124]
- IC50: 3 nM

SMILES: COC1CCN(c2nc3nn(-c4c(C)cc(C)cc4C)cc3c(=O)[nH]2)C1 (racemic) [Example 93]
- IC50: 9.1 nM

SMILES: Cc1ccccc1-n1cc2c(=O)[nH]c(N3CCC3(C)C)nc2n1 [Example 39]
- IC50: 7100 nM

SMILES: Nc1cc(C(F)(F)F)cc(Cl)c1-n1cc2c(=O)[nH]c(N3CCOCC3)nc2n1 [Example 271]
- IC50: 20 nM

SMILES: Cc1cc(Br)cc(C)c1-n1cc2c(=O)[nH]c(N3CC4CC(C3)O4)nc2n1 [Example 211]
- IC50: 4.6 nM

SMILES: COc1cc(C)c(-n2cc3c(=O)[nH]c(N4CCCC4)nc3n2)c(C)c1 [Example 345]
- IC50: 16 nM

SMILES: Cc1cc(Cl)ccc1-n1cc2c(=O)[nH]c(N3CCCC3)nc2n1 [Example 95]
- IC50: 5.2 nM

SMILES: Cc1cc(C(F)(F)F)cnc1-n1cc2c(=O)[nH]c(N3CC(F)(F)C3)nc2n1 [Example 123]
- IC50: 140 nM

SMILES: Cc1cc(OC(F)(F)F)cc(C)c1-n1cc2c(=O)[nH]c(N3CCOCC3)nc2n1 [Example 200]
- IC50: 29 nM

SMILES: COC1CCN(c2nc3nn(-c4ccc(C)cc4C)cc3c(=O)[nH]2)C1 (racemic) [Example 56]
- IC50: 190 nM

SMILES: Cc1cc(Br)cc(C)c1-n1cc2c(=O)[nH]c(N3C[C@H]4C[C@@H]3CO4)nc2n1 [Example 197]
- IC50: 8 nM

SMILES: CCOC1CCN(c2nc3nn(-c4ccccc4C)cc3c(=O)[nH]2)C1 (racemic) [Example 28]
- IC50: 950 nM

SMILES: Cc1cc(C)c(-n2cc3c(=O)[nH]c(N4CCCC4)nc3n2)c(C)c1 [Example 63]
- IC50: 17 nM

SMILES: Cc1cc(C#N)ccc1-n1cc2c(=O)[nH]c(N3CCCC3)nc2n1 [Example 71]
- IC50: 1200 nM

SMILES: O=c1[nH]c(N2C[C@H]3C[C@@H]2CO3)nc2nn(-c3ccc(Br)cc3C(F)(F)F)cc12 [Example 259]
- IC50: 23 nM

SMILES: O=c1[nH]c(N2CCOCC2)nc2nn(-c3ncc(C(F)(F)F)cc3Br)cc12 [Example 201]
- IC50: 190 nM

SMILES: COCc1cc(Cl)ccc1-n1cc2c(=O)[nH]c(N3CCCC3)nc2n1 [Example 144]
- IC50: 24 nM

SMILES: Cc1cc(Br)ccc1-n1cc2c(=O)n(CC#N)c(N3CCN(S(C)(=O)=O)CC3)nc2n1 [Example 173]
- IC50: 120 nM

SMILES: COC(c1cc(C2CC2)ccc1-n1cc2c(=O)[nH]c(N3C[C@H]4C[C@@H]3CO4)nc2n1)C1CC1 (some centres unmarked) [Example 315]
- IC50: 670 nM

SMILES: Cc1nn(C2CCC2)c(C)c1-n1cc2c(=O)[nH]c(N3CCCC3)nc2n1 [Example 344]
- IC50: 650 nM

SMILES: Cc1ccccc1-n1cc2c(=O)[nH]c(N3CCC(C)(O)C3)nc2n1 (racemic) [Example 37]
- IC50: 3200 nM

SMILES: Cc1cc(Br)cc(C)c1-n1cc2c(=O)[nH]c(N3CC4CC(C3)N4S(C)(=O)=O)nc2n1 [Example 222]
- IC50: 18 nM

SMILES: Cc1cc(Br)cc(C)c1-n1cc2c(=O)[nH]c(N3CCCO3)nc2n1 [Example 308]
- IC50: 170 nM

SMILES: O=c1[nH]c(N2CC(O)C2)nc2nn(-c3ccc(C(F)(F)F)cc3Cl)cc12 [Example 182]
- IC50: 79 nM

SMILES: Cc1cc(C(C)(F)F)cc(C)c1-n1cc2c(=O)[nH]c(N3CCOCCO3)nc2n1 [Example 351]
- IC50: 74 nM

SMILES: Cc1cc(Br)cc(C)c1-n1cc2c(=O)[nH]c(N3C[C@@H]4C[C@H]3CO4)nc2n1 [Example 195]
- IC50: 6.8 nM

SMILES: Cc1cc(C2CC2)cc(C)c1-n1cc2c(=O)[nH]c(N3CCCCO3)nc2n1 [Example 333]
- IC50: 49 nM

SMILES: COCC1CN(c2nc3nn(-c4ccc(Br)cc4C)cc3c(=O)[nH]2)CCO1 (racemic) [Example 72]
- IC50: 52 nM

SMILES: Cc1ccc(-n2cc3c(=O)[nH]c(N4CCOCC4)nc3n2)c(C)c1 [Example 126]
- IC50: 53 nM

SMILES: CCOC1CCN(c2nc3nn(-c4c(C)cccc4C)cc3c(=O)[nH]2)C1 (racemic) [Example 48]
- IC50: 820 nM

SMILES: CC(O)c1cc(Br)ccc1-n1cc2c(=O)[nH]c(N3CCOCC3)nc2n1 (racemic) [Example 130]
- IC50: 63 nM

SMILES: Cc1cc(C(F)F)cc(C)c1-n1cc2c(=O)[nH]c(N3C[C@H]4C[C@@H]3CO4)nc2n1 [Example 330]
- IC50: 80 nM

SMILES: COCc1cc(Br)ccc1-n1cc2c(=O)[nH]c(N3CCOCC3)nc2n1 [Example 268]
- IC50: 34 nM

SMILES: Cc1cc(Cl)ccc1-n1cc2c(=O)[nH]c(N3CCOCC3)nc2n1 [Example 164]
- IC50: 29 nM

SMILES: Cn1c(N2CC3CC(C2)O3)nc2nn(-c3ccc(C4CC4)cc3C(F)(F)F)cc2c1=O [Example 313]
- IC50: 240 nM

SMILES: Cc1ccc(-n2cc3c(=O)[nH]c(N4CCCC4)nc3n2)c(Cl)c1 [Example 87]
- IC50: 5.1 nM

SMILES: Cc1cc(Br)cnc1-n1cc2c(=O)[nH]c(N3CCCC3)nc2n1 [Example 77]
- IC50: 49 nM

SMILES: CONc1nc2nn(-c3c(C)cc(C4CC4)cc3C)cc2c(=O)[nH]1 [Example 348]
- IC50: 33 nM

SMILES: Cc1nn(C(C)C)c(C)c1-n1cc2c(=O)[nH]c(N3CCCC3)nc2n1 [Example 343, 2-(1-isopropyl-3,5-dimethyl-1H-pyrazol-4-yl)-6-(pyrrolidin-1-yl)-2,5-dihydro-4H-pyrazolo[3,4-d]pyrimidin-4-one]
- IC50: 750 nM
